Data from the METLIN SMRT retention time set (Domingo-Almenara et al. 2019).

Test: gradient 5% acetonitrile 3 min, to 50% in 2 min, to 85% in 15 min, held 3 min, 100 µL/min
Details: column: Zorbax Extend-C18 2.1 x 50 mm; eluents: water / acetonitrile, 0.1% formic acid
Summary of the method: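 Data were gathered over 3 months by HPLC coupled to a quadrupole time-of-flight mass spectrometer, operated in positive and negative ionization mode. Mixtures of ~100 pure standards ran on a Zorbax Extend-C18 column (2.1 × 50 mm, 1.8 μm) at 100 μL/min, with water and acetonitrile each containing 0.1% formic acid and dead and dwell volumes of 40 μL and 900 μL. Retention time was read from adduct peaks picked by computer and checked manually.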

| SMILES | RP-LC retention time [s] |
| --- | --- |
| CCS(=O)(=O)N1CC(=O)N(c2cc(C)cc(C)c2)C(C)(C(=O)NCc2ccccc2)C1 (stereo not given) | 868 |
| CCCc1c(C(=O)O)nnn1Cc1cccc(OC)c1 | 738 |
| Cc1ccc(CN2C(=O)Cn3cccc3C2C(=O)NC2CCCC2)cc1 (stereo not given) | 892 |
| CC(CCc1ccccc1)NC(=O)CCC(=O)N1CCCn2nc(-c3cccn3C)cc21 (stereo not given) | 842 |
| CCCN1C(=O)C(CC(=O)NC(C)C)Sc2ncccc21 (stereo not given) | 680 |
| O=C(CSc1cc(N2CCN(c3ccccc3F)CC2)ncn1)Nc1ccccc1F | 1190 |
| CCc1nc2ncc(-c3ccnc(N4CCN(Cc5ccccc5)CC4)n3)c(C)n2n1 | 607 |
| CCN(CC)C(=O)c1ccc(O)c(OC)c1 | 718 |
| CCn1cc(C)c(C(=O)O)c1CC(=O)NCc1ccc(C)cc1 | 772 |
| Cc1nc(Nc2ccccc2)sc1C(=O)NCC1CC1 | 800 |
| O=C(c1c[nH]c2ccccc12)N1CCC2(CC1)NC(=O)N(Cc1ccccc1)C2=O | 750 |
| O=C1Nc2ccccc2OC1C(=O)N1CCC(Cc2ccccc2)CC1 (stereo not given) | 920 |
| Cc1cc(-c2c(C)sc(C)c2S(=O)(=O)NC2CCCCCC2)n[nH]1 | 1140 |
| Cc1nn(C)c(C)c1CCC(=O)NCCn1c(C)cnc1C1CCC1 | 547 |
| O=C(Cc1cccs1)Nc1ccc(SCc2nnc(-c3ccccc3)o2)cc1 | 940 |
| O=c1c2ccccc2ncn1-c1ccc(Cl)cc1 | 870 |
| O=C(NCc1ccccc1OC(F)(F)F)c1ccc(OCC(=O)C2CC2)cc1 | 876 |
| CCOC(=O)c1noc2ncnc(N(Cc3ccccc3OC)C3CCN(C)CC3)c12 | 667 |
| Cn1c(=O)c2nc(S(=O)(=O)CCC(=O)Nc3ccc(Cl)cc3)n(C)c2n(C)c1=O | 741 |

| SMILES | RP-LC retention time [s] |
| --- | --- |
| CCCOc1ccc(CN2C[C@@H](CO)[C@H](N(C)C)C2)cc1OC | 551 |
| O=C1NC2(CCN(C(=O)Nc3ccc4c(c3)OCO4)CC2)Nc2c(Cl)cccc21 | 682 |
| O=C(Cn1nc2c(cc1=O)CCCC2)NCCc1nc(-c2ccccc2)cs1 | 784 |
| Cc1ccc(-n2c(=O)c3c(cc(C)n3C)n(CC(=O)Nc3ccc(F)cc3)c2=O)cc1 | 800 |
| CC(C)Cn1nc(CNC(=O)c2ccsc2)c2ccccc21 | 882 |
| COc1c(S(=O)(=O)Nc2cccnc2)ccc(Cl)c1Cl | 649 |
| CC(=O)Nc1cccc(N2CC(C(=O)Nc3cccc(C(F)(F)F)c3)CC2=O)c1 (stereo not given) | 775 |
| Cc1c(Cl)cccc1Nc1c(-c2ccc(Br)cc2)nc2cnccn12 | 1160 |
| CC(C)Cn1cc(CCNC(=O)c2cc3ccccc3[nH]2)c2cccnc21 | 850 |
| CC1=NS(=O)(=O)N(C)C=C1C(=O)OCc1c(F)cccc1Cl | 968 |
| CCn1cc(CCNC(=O)NCC(=O)OC)c2cccnc21 | 574 |
| COc1ccc(CC2C(=O)Nc3ccc(Br)cc32)cc1 (stereo not given) | 882 |
| O=C(CSc1ncnc2ccccc12)NCc1ccccc1 | 708 |
| Nc1nc(-c2ccc(O)cc2)cs1 | 547 |
| CCn1ccc2c(cc(C(=O)Nc3cccc(C(F)(F)F)c3)n2C)c1=O | 880 |
| O=C(Cn1nc2c3cc(F)ccc3ncn2c1=O)Nc1ccc2c(c1)OCO2 | 668 |
| O=C(Cc1ccc(F)cc1)NCc1ccc(-c2nc(C3CC3)no2)s1 | 885 |
| CC(C)(C)C(=O)Nc1cnc(-c2ccc(Cl)cc2)nc1 | 1060 |
| O=C(NCc1cc(F)cc(F)c1)c1cn2cc(Cl)ccc2n1 | 857 |

| SMILES | RP-LC retention time [s] |
| --- | --- |
| CCn1c(=O)n(-c2ccc(F)cc2)c2nc(-c3ccc(F)c(F)c3)nc(C(N)=O)c21 | 1050 |
| CCc1ccccc1N(C)C(=O)c1cc2c(=O)n(CC)c3ccccc3n2n1 | 1010 |
| COC[C@@H]1CN(S(=O)(=O)Cc2ccccc2)C[C@H]1c1ccncc1 | 637 |
| CCOc1ccccc1NC(=O)Cn1ccnc1-c1ccnc(N2CCOCC2)c1 | 638 |
| CCN1C(=O)c2cccnc2Sc2cc(CNC(=O)c3cnccn3)ccc21 | 683 |
| Cc1ccc(C(CNC(=O)c2cc(=O)c3ccccc3o2)N(C)C)cc1 (stereo not given) | 626 |
| Fc1ccc(CN2CC(F)(F)C[C@H]2COc2cccnc2)c(Cl)c1 | 870 |
| CCCn1cc(S(=O)(=O)NCc2ccccc2C(F)(F)F)c2cccnc21 | 988 |
| CSc1ccc(-c2nc3nc(C)cc(C)n3c2Nc2ccc(C)cc2)cc1 | 810 |
| O=C(NCCc1c[nH]c2ccccc12)c1cc(S(=O)(=O)N2CCSCC2)ccc1Cl | 925 |
| CN1C(=O)CCc2cc(NC(=O)c3cccs3)ccc21 | 671 |
| CN(CCCNC(=O)C1CCCN(c2ncc(-c3ccccc3)cn2)C1)c1ccccc1 (stereo not given) | 826 |
| Cc1cnc(-c2ccncc2)n1CC1CN(S(=O)(=O)c2ccc3c(c2)CCC3)C1 | 651 |
| CCc1nn2c(N3CCN(c4ccccn4)CC3)cc(C)nc2c1-c1ccccc1 | 670 |
| COc1ccc(NC(=O)Cn2ccc3sccc3c2=O)cc1 | 706 |
| CCS(=O)(=O)Nc1cc(-c2nnc(C)o2)sc1C | 738 |
| CCn1cc(C(=O)NCc2ccc(C)cc2)c(S(=O)(=O)N2CCSCC2)n1 | 944 |
| CC(C)Cn1c(CC2CCN(C(=O)COc3ccccc3)C2)nc2cccnc21 (stereo not given) | 672 |

Now from value to compound:

| RP-LC retention time [s] | SMILES |
| --- | --- |
| 816 | COc1ccc(-c2noc(C3CC(=O)N(c4ccc5c(c4)OCO5)C3)n2)c(OC)c1 (stereo not given) |
| 671 | Cc1cc(OCC(=O)NCc2ccc3c(c2)OCO3)nc(N2CCCC(C)C2)n1 (stereo not given) |
| 897 | COc1cc(OC)cc(C(=O)Nc2nc(-c3ccc4c(c3)NC(=O)CO4)cs2)c1 |
| 1010 | COc1cc(NC(=O)C2CCN(c3c(C(=O)N4CCC(C)CC4)cnc4snc(C)c34)CC2)cc(OC)c1 |
| 883 | COc1ccc(-c2cn3c(n2)N(C(=O)c2cccs2)CCC3)cc1 |
| 1240 | CCOc1nc2ccccc2nc1N1CCCC(C(=O)Nc2ccc(OC)c(Cl)c2)C1 (stereo not given) |
| 606 | CCCn1ccc2sc(C)c(C(=O)N3CCN(C4CCCCC4)CC3)c2c1=O |
| 888 | O=C(Cc1csc2nc(-c3cccc(Br)c3)cn12)NC1CCCC1 |
| 1180 | O=C(C1CCCN(c2nccnc2Oc2ccccc2)C1)N1CCN(c2cccc(Cl)c2)CC1 (stereo not given) |
| 598 | CN(C)C(=O)c1ccc2c(c1)nc(CN(C)C(=O)Nc1ccc(F)cc1)n2C |
| 857 | COc1ccc(CN2CCN(C(c3ccc(F)cc3)c3ccc(F)cc3)CC2)c(OC)c1OC |
| 598 | COc1ccc2[nH]c(=O)c(CCC(=O)NCCN(C)C3CCCCC3)cc2c1 |
| 683 | CCN1CCN(C(=O)C2CCc3sc(C(=O)N(CC)CC)cc3C2)CC1 (stereo not given) |
| 720 | CCCNC(=O)C1CCCN(c2ccc(SCC(=O)Nc3cccc(Cl)c3C)nn2)C1 (stereo not given) |
| 650 | Cc1cc(OCC(=O)NCc2ccco2)nc(N2CCC(C)CC2)n1 |
| 985 | CCOc1ccc(/C=C/C(=O)Nc2nc(-c3ccc4c(c3)N(C)C(=O)CO4)cs2)cc1OC |
| 668 | Cc1cc(=O)n(CC(=O)Nc2ccc(C)c(C)c2)c(N2CCCC2)n1 |

| RP-LC retention time [s] | SMILES |
| --- | --- |
| 999 | CCn1cc(C2=CCN(C(=O)Nc3cc(Cl)ccc3C)CC2)c2cccnc21 |
| 856 | Cc1ccc(C(=O)N2CCCC(COc3ccc(C(=O)NC4CC4)cc3)C2)c(C)c1 (stereo not given) |
| 960 | Cc1cc(NC(=O)c2cn(C)nc2S(=O)(=O)N2CCSCC2)ccc1F |
| 720 | CCCNC(=O)C1CCCN(c2ccc(SCC(=O)Nc3cc(Cl)ccc3C)nn2)C1 (stereo not given) |
| 778 | Cc1cc2n(n1)CCCN2C(=O)CCC(=O)N1CCN(c2cccc(Cl)c2)CC1 |
| 712 | COc1ccc(-c2c(C(=O)O)nnn2-c2ccc(OC)c(OC)c2)cc1 |
| 733 | COc1ccccc1CNC(=O)C1CCN(S(=O)(=O)c2cn(C(C)C)cn2)CC1 |
| 1300 | COc1ccccc1N1CCN(S(=O)(=O)c2cc(-c3cc(C(F)(F)F)on3)sc2C)CC1 |
| 713 | CC1CCN(S(=O)(=O)N2CCCC(C(=O)NC3CCN(Cc4ccccc4)CC3)C2)CC1 (stereo not given) |
| 624 | O=C(Nc1ccc(F)cc1)N1CCN(Cc2nc3cccnc3n2-c2ccc(F)cc2)CC1 |
| 627 | COC(=O)c1c(C)[nH]c(C(=O)N2CCCC(C(=O)NC3CC3)C2)c1C (stereo not given) |
| 1260 | CCCOc1nc2ccccc2nc1N1CCCC(C(=O)Nc2cccc(OC)c2)C1 (stereo not given) |
| 945 | Cc1ccc(NC(=O)C2CCN(S(C)(=O)=O)c3cc(C)ccc3O2)c(C)c1 (stereo not given) |
| 1260 | CCOC(=O)c1cc(C2CC2)nc2c1c(=O)n(Cc1ccc(C)cc1)c(=O)n2C |
| 1010 | Cc1ccc(-n2c(N3CCC(C(=O)NC(C)c4ccc(F)cc4)CC3)nc3ccsc3c2=O)cc1 (stereo not given) |
| 1080 | Cc1cccc(N2CCN(c3ccc4cc(S(=O)(=O)N5CCOCC5)ccc4n3)CC2)c1C |
| 647 | CC1CSc2ccc(S(=O)(=O)N3CCN(c4ccccn4)CC3)cc2NC1=O (stereo not given) |
